Results from patent EP0815072B1, “RADIOGRAPHIC CONTRASTING AGENT FOR COMPUTERISED TOMOGRAPHY AND UROGRAPHY” (SCHERING AKTIENGESELLSCHAFT, priority 1995, dated 1996).

What was measured:
[1] = Butanol/water (buffer pH 7) partition coefficient; format: physicochemical; conditions: for Verteilungskoeffizient: Butanol/Wasser (Puffer pH 7), n = 4, Mittelwert ± Standardabweichung
Description: Während Osmolalität, Viskosität und Jodgehalt den strukturisomeren Verbindungen lopamidol und lomeprol sehr ähnlich sind, zeigt sich eine überraschend erhöhte Hydrophilie der erfindungsgemäßen Verbindungen (Tab. 1). Tab.1:
Die Hydrophilie wird nicht wie bei der mit lohexol bezeichneten Verbindung durch die Einführung einer zusätzlichen Hydroxyalkylfunktion erreicht (die den Jodgehalt vermindert und Viskosität und Osmolalität erhöht), sondern ist die überraschende Folge einer neuen sterischen Anordnung der Substituenten an dem jodierten Aromaten.

[2] = test system: Ratten; experiment: Lethal dose after intravenous injection in rats; format: in vivo; conditions: i.v., Ratten (90-110 g), 300 mg Jod/ml, 2 ml/min
Description: (§1) Die Hydrophilie wird als eine wichtige Voraussetzung für eine Verminderung der bei intravenöser Injektion beobachteten nicht osmolalitätsbedingten Nebenwirkungen angesehen (Dawson P., Clauß W.: Contrast Media in Practice, Springer Verlag Berlin Heidelberg 1993, Seite 11-12). Dazu gehören vor allem Übelkeit und Erbrechen, sowie allergieartige Reaktionen bis hin zum schweren anaphylaktoiden Schock. Andere Testergebnisse, die eine besonders gute Allgemeinverträglichkeit anzeigen, werden in biochemischen, biologischen und toxikologischen (Tab. 2) Untersuchungen gewonnen.

[3] = Lethal dose after intravenous injection in rats; format: in vivo, Ratten; conditions: rat, in vivo, iv; all three doses pooled, i.v., Ratten; read-out: gestorbene Tiere, alle Dosierungen (%)
Description: as §1

SMILES	Verteilungskoeffizient [1]	Hydrophilie ([1]; comparison with structurally comparable compounds, from the partition coefficient)	Zahl der gestorbenen Tiere / Gesamtzahl der Tiere ([2]; Dosis 1: 12 g J/kg)	Zahl der gestorbenen Tiere / Gesamtzahl der Tiere ([2]; Dosis 2: 15 g J/kg)	Zahl der gestorbenen Tiere / Gesamtzahl der Tiere ([2]; Dosis 3: 18 g J/kg)	mortality [3] [%]
CN(CC(O)CO)C(=O)c1c(I)c(NC(=O)CO)c(I)c(C(=O)NCC(O)CO)c1I (stereo not shown) [Beispiel 1, 5-Hydroxyacetylamino-2,4,6-triiod-isophthalsäure-[(2,3-dihydroxy-N-methyl-propyl)-(2,3-dihydroxypropyl)]-diamid]	0.069 ± 0.011	am stärksten hydrophil	0/4	2/4	2/4	33
CC(=O)N(CC(O)CO)c1c(I)c(C(=O)NCC(O)CO)c(I)c(C(=O)NCC(O)CO)c1I (stereo not shown) [lohexol]	0.082 ± 0.005					
CN(C(=O)CO)c1c(I)c(C(=O)NCC(O)CO)c(I)c(C(=O)NCC(O)CO)c1I (stereo not shown) [lomeprol]	0.105 ± 0.006		2/3	3/3	3/3	89
C[C@H](O)C(=O)Nc1c(I)c(C(=O)NC(CO)CO)c(I)c(C(=O)NC(CO)CO)c1I [lopamidol]	0.089 ± 0.014		2/4	1/4	4/4	58
COCC(=O)Nc1c(I)c(C(=O)NCC(O)CO)c(I)c(C(=O)N(C)CC(O)CO)c1I (stereo not shown) [lopromid]	0.149 ± 0.011		1/4	3/4	4/4	67
